Patent publication US20180193493A1, “RENAL IMAGING AGENT” (NIHON MEDI-PHYSICS CO., LTD., priority 2014, published 2018)

What was measured:
[1] = tested on: CKD model animals (adriamycin-treated Lewis rats), kidneys excluding the renal pelvis; test: PET imaging (static, SUV) in CKD models; assay type: in vivo
Method: (§1) Adriamycin (from Wako Pure Chemical Industries, Ltd., 7.5 mg/kg) was administered to 13 Lewis rats (male, 8-week-old, available from Japan SLC, Inc.) via the tail vein, and urinary protein was measured in accordance with the Bradford method on day 13 after the administration, for 11 cases excluding two dead cases. Of these, four cases having a high urinary protein level were selected as CKD model animals, and used in the below-described examples on day 14 after the administration of adriamycin.
(§2) ^18F-HIC101 (radiochemical purity: 84.2%) was administered to the four CKD models prepared in Example 1 at 18.6±0.9 MBq/rat and to four healthy models at 17.0±2.7 MBq/rat, and after 80 minutes from the administration, static imaging was performed using a PET system for animals (eXplore Vista from GE). The collection conditions were 10 minutes at an energy window of 250 to 700 keV. The collected data were reconstructed and imaged using the 3D-OSEM method. From the images, the average of maximum values of SUV (standardized uptake value) of the kidneys (the region of interest (ROI) was set excluding the renal pelvis) and the average value of SUV of normal tissue in each slice were measured. Based on these values, the lesion-to-normal tissue ratio and the normal kidney-to-normal tissue ratio were used for evaluation. Student's t-test was used for statistical analysis of the measured results.
(§3) ^18F-FMISO (radiochemical purity: 96% or more) was administered to the four CKD models prepared in Example 1 at 18.7±1.1 MBq/rat and to four healthy models at 19.5±0.69 MBq/rat, and after 80 minutes from the administration, static imaging was performed using a PET system for animals (eXplore Vista from GE). One case each from each of the groups was placed under anesthesia again after the PET imaging, and imaging was performed after 180 minutes from the administration. The collection conditions were 10 minutes at an energy window of 250 to 700 keV, and the collected data were reconstructed and imaged using the 3D-OSEM method. From the images, the average of maximum values of SUV of the kidneys (the region of interest (ROI) was set excluding the renal pelvis) and the average value of SUV of normal tissue in each slice were measured. Based on these values, the lesion-to-normal tissue ratio and the normal kidney-to-normal tissue ratio were used for evaluation. Student's t-test was used for statistical analysis of the measured results.

[2] = tested on: healthy models (physiological saline-treated Lewis rats), kidneys excluding the renal pelvis; test: PET imaging (static, SUV) in healthy models; assay type: in vivo
Method: (§4) As healthy models, four cases prepared by administering an equivalent amount of physiological saline instead of adriamycin were used.
as §2, §3

[3] = tested on: CKD model animals (adriamycin-treated Lewis rats); test: Experiment of in vivo distribution in CKD models; conditions: 100 minutes after administration
Method: as §1
(§5) After the completion of the PET imaging in Example 2, these rats were placed under anesthesia until 100 minutes after the administration, and were sacrificed by exsanguination. Then, the left and right kidneys, blood, brain, lung, heart, liver, spleen, stomach, small intestine, large intestine, adrenal gland, muscles, bones, fat around the kidneys, urine, and the remaining whole body were extracted, and weights and amounts of radioactivity were measured. Student's t-test was used for statistical analysis of the results.
as §5, with “Three cases from each of” for “After”, “groups that underwent” for “completion of”, “imaging after 80 minutes from the administration” for “imaging”, “5, as well as one case from each of the groups that had not undergone PET imaging,” for “2, these rats”

[4] = tested on: healthy models (physiological saline-treated Lewis rats); test: Experiment of in vivo distribution in healthy models; conditions: healthy model; 100 minutes after administration
Method: as §4, §5
as §5, with “Three cases from each of” for “After”, “groups that underwent” for “completion of”, “imaging after 80 minutes from the administration” for “imaging”, “5, as well as one case from each of the groups that had not undergone PET imaging,” for “2, these rats”

[5] = CKD model group, PET after 80 min from administration
[6] = CKD model group, PET after 80 min from administration, ROI excluding renal pelvis
[7] = healthy model group, PET after 80 min from administration
[8] = healthy model group, PET after 80 min from administration, ROI excluding renal pelvis
[9] = CKD model, one case, PET after 180 min from administration
[10] = healthy model, one case, PET after 180 min from administration

## O=[N+]([O-])c1nccn1CC(CO)(CO)C[18F] [^18F-HIC101, 2-[^18F]fluoromethyl-2-((2-nitro-1H-imidazol-1-yl)methyl)-1,3-propanediol]
[1]; [5]
  Normal Tissue SUV Average Value: 0.46 ± 0.04^$
  Renal Tissue (Lesion or Normal)-to-Normal Tissue Ratio, Left: 11.59 ± 1.88
  Renal Tissue (Lesion or Normal)-to-Normal Tissue Ratio, Right: 11.33 ± 1.57
  Renal Tissue SUV Maximum Value, Left: 5.25 ± 0.55
[1]; [6]
  Renal Tissue SUV Maximum Value, Right: 5.17 ± 0.70
[1]; MIP PET image of FIG. 1, after 80 minutes from administration
  SUV maximum value of renal tissue in the example shown in FIG. 1: 10
[1]; individual CKD model of FIG. 3, (left)
  SUV maximum value of the CKD model examined for HIF-1α expression, (left): 4.30
[1]; individual CKD model of FIG. 3, (right)
  SUV maximum value of the CKD model examined for HIF-1α expression, (right): 5.12
[1]; summary of Examples 2 to 6
  Comparison of uptake in the CKD models between the two agents: higher than the uptake of ^18F-FMISO
  Uptake into renal tissue excluding the renal pelvis, CKD models versus healthy models: uptaken into the renal tissue excluding the renal pelvis in the CKD models significantly, compared with the healthy models
[2]; [7]
  Normal Tissue SUV Average Value: 0.37 ± 0.06
  Renal Tissue (Lesion or Normal)-to-Normal Tissue Ratio, Left: 3.69 ± 0.37
  Renal Tissue (Lesion or Normal)-to-Normal Tissue Ratio, Right: 3.77 ± 0.66
  Renal Tissue SUV Maximum Value, Left: 1.37 ± 0.28
[2]; [8]
  Renal Tissue SUV Maximum Value, Right: 1.42 ± 0.43
[2]; individual healthy model of FIG. 3
  SUV maximum value of the healthy model examined for HIF-1α expression: 1.06
[3]
  In vivo distribution (radioactivity uptake), Blood: 0.16 ± 0.04
  In vivo distribution (radioactivity uptake), Heart: 0.18 ± 0.04
  In vivo distribution (radioactivity uptake), Kidney (Left): 2.11 ± 0.44
  In vivo distribution (radioactivity uptake), Kidney (Right): 2.60 ± 0.58
  In vivo distribution (radioactivity uptake), Large Intestine: 3.17 ± 0.08
  In vivo distribution (radioactivity uptake), Liver: 0.34 ± 0.05
  In vivo distribution (radioactivity uptake), Lung: 0.18 ± 0.05
  In vivo distribution (radioactivity uptake), Muscles: 0.26 ± 0.04
  In vivo distribution (radioactivity uptake), Small Intestine: 0.25 ± 0.82
  In vivo distribution (radioactivity), Urine: 29.9 ± 14.9 % ID
[4]
  In vivo distribution (radioactivity uptake), Blood: 0.08 ± 0.03
  In vivo distribution (radioactivity uptake), Heart: 0.09 ± 0.03
  In vivo distribution (radioactivity uptake), Kidney (Left): 1.17 ± 0.61
  In vivo distribution (radioactivity uptake), Kidney (Right): 1.01 ± 0.24
  In vivo distribution (radioactivity uptake), Large Intestine: 0.32 ± 0.44
  In vivo distribution (radioactivity uptake), Liver: 0.23 ± 0.06
  In vivo distribution (radioactivity uptake), Lung: 0.08 ± 0.03
  In vivo distribution (radioactivity uptake), Muscles: 0.09 ± 0.03
  In vivo distribution (radioactivity uptake), Small Intestine: 4.50 ± 0.70
  In vivo distribution (radioactivity), Urine: 34.4 ± 23.3 % ID

## O=[N+]([O-])c1nccn1CC(O)C[18F] (stereo not shown) [^18F-FMISO, 1-[^18F]fluoro-3-(2-nitro-1H-imidazol-1-yl)-2-propanol]
[1]; [5]
  Normal Tissue SUV Average Value: 0.94 ± 0.11
  Renal Tissue (Lesion or Normal)-to-Normal Tissue Ratio, Left: 2.11 ± 0.14
  Renal Tissue (Lesion or Normal)-to-Normal Tissue Ratio, Right: 2.22 ± 0.10
  Renal Tissue SUV Maximum Value, Left: 1.97 ± 0.15
[1]; [6]
  Renal Tissue SUV Maximum Value, Right: 2.08 ± 0.22
[1]; [9]
  Normal Tissue SUV Average Value: 0.87
  Renal Tissue (Lesion or Normal)-to-Normal Tissue Ratio, Left: 3.17
  Renal Tissue (Lesion or Normal)-to-Normal Tissue Ratio, Right: 2.87
  Renal Tissue SUV Maximum Value, Left: 2.77
  Renal Tissue SUV Maximum Value, Right: 2.51
[1]; PET images after 180 minutes compared with after 80 minutes from administration
  Uptake in renal cortex versus renal pelvis: a tendency toward a higher uptake in the renal cortex than in the renal pelvis
[1]; after 180 minutes versus after 80 minutes from administration
  Change of SUV maximum value (ROI analysis): a tendency for the SUV maximum value to increase more than that after 80 minutes from the administration
[1]; summary of Examples 2 to 6
  Uptake into renal tissue excluding the renal pelvis, CKD models versus healthy models: uptaken into the renal tissue excluding the renal pelvis in the CKD models significantly, compared with the healthy models
[2]; [7]
  Normal Tissue SUV Average Value: 0.89 ± 0.03
  Renal Tissue (Lesion or Normal)-to-Normal Tissue Ratio, Left: 1.95 ± 0.05
  Renal Tissue (Lesion or Normal)-to-Normal Tissue Ratio, Right: 1.89 ± 0.13
  Renal Tissue SUV Maximum Value, Left: 1.74 ± 0.08
[2]; [8]
  Renal Tissue SUV Maximum Value, Right: 1.68 ± 0.14
[2]; [10]
  Normal Tissue SUV Average Value: 0.72
  Renal Tissue (Lesion or Normal)-to-Normal Tissue Ratio, Left: 2.31
  Renal Tissue (Lesion or Normal)-to-Normal Tissue Ratio, Right: 2.26
  Renal Tissue SUV Maximum Value, Left: 1.67
  Renal Tissue SUV Maximum Value, Right: 1.63
[3]
  In vivo distribution (radioactivity uptake), Blood: 0.44 ± 0.02
  In vivo distribution (radioactivity uptake), Heart: 0.53 ± 0.01
  In vivo distribution (radioactivity uptake), Kidney (Left): 1.08 ± 0.28
  In vivo distribution (radioactivity uptake), Kidney (Right): 1.09 ± 0.29
  In vivo distribution (radioactivity uptake), Large Intestine: 1.14 ± 0.10
  In vivo distribution (radioactivity uptake), Liver: 0.89 ± 0.28
  In vivo distribution (radioactivity uptake), Lung: 0.48 ± 0.02
  In vivo distribution (radioactivity uptake), Muscles: 0.47 ± 0.02
  In vivo distribution (radioactivity uptake), Small Intestine: 1.54 ± 0.67
  In vivo distribution (radioactivity), Urine: 2.60 ± 2.16 % ID
[4]
  In vivo distribution (radioactivity uptake), Blood: 0.30 ± 0.02
  In vivo distribution (radioactivity uptake), Heart: 0.34 ± 0.02
  In vivo distribution (radioactivity uptake), Kidney (Left): 0.53 ± 0.03
  In vivo distribution (radioactivity uptake), Kidney (Right): 0.55 ± 0.03
  In vivo distribution (radioactivity uptake), Large Intestine: 1.52 ± 0.15
  In vivo distribution (radioactivity uptake), Liver: 0.50 ± 0.04
  In vivo distribution (radioactivity uptake), Lung: 0.31 ± 0.02
  In vivo distribution (radioactivity uptake), Muscles: 0.30 ± 0.02
  In vivo distribution (radioactivity uptake), Small Intestine: 0.74 ± 0.11
  In vivo distribution (radioactivity), Urine: 9.50 ± 1.75 % ID
